# According to patent US7485657B2, “Anti-cytokine heterocyclic compounds” (Boehringer Ingelheim Pharmaceuticals, Inc., priority 2004, dated 2009):
# Counter-ions that a name gives are not always drawn.
row,melting point,Structure (SMILES)
1,104 to 111 °C (dec.),"CCOC(=O)c1cc(N)n(-c2cc(C(=O)Nc3cc(C(C)(C)C)cc(NS(C)(=O)=O)c3OC)ccc2C)n1 (as salt: TFA) [Example 1, 5-amino-1-[5-(5-tert-butyl-3-methanesulfonylamino-2-methoxy-phenylcarbamoyl)-2-methyl-phenyl]-1H-pyrazole-3-carboxylic acid ethyl ester]"
2,125 to 130 °C,"CCOC(=O)c1cnn(-c2cc(C(=O)Nc3cc(C(C)(C)C)cc(NS(C)(=O)=O)c3OC)ccc2C)c1 [Example 2, 1-[5-(5-tert-butyl-3-methanesulfonylamino-2-methoxy-phenylcarbamoyl)-2-methyl-phenyl]-1H-pyrazole-4-carboxylic acid ethyl ester]"
3,127 to 133 °C,"COc1c(NC(=O)c2ccc(C)c(-n3cc(C(=O)NCc4cccnc4)cn3)c2)cc(C(C)(C)C)cc1NS(C)(=O)=O [Example 4, 1-[5-(5-tert-Butyl-3-methanesulfonylamino-2-methoxy-phenylcarbamoyl)-2-methyl-phenyl]-1H-pyrazole-4-carboxylic acid (pyridin-3-ylmethyl)-amide]"
